Results published in patent US20260242359A1, “IRHOM2 INHIBITORS AND USES THEREOF” (NEW YORK SOCIETY FOR THE RELIEF OF THE RUPTURED AND …, priority 2023, published 2026).
Like-named read-outs stand apart in the source and are kept apart here.

Test system: LPS-induced release of endogenous TNFα from human THP-1 macrophage cells
Test: Example 12: ELISA-based TNFα release assay, LPS-induced, THP-1 macrophage cells
Type: cell-based
Details: for inhibition at 10 µM: Homo sapiens, THP-1, 2 h, read-out: inhibition of LPS-induced release of TNFα from THP-1 cells
Procedure: In the following study, ELISA-based TNFα release assay was performed to verify the inhibitory effects of Compounds 1, 2, 3, 4, 5, and 7 on LPS-induced release of endogenous TNFα from human THP-1 macrophage cells. The ELISA-based TNFα release assay that was used in this example is described below.
In brief, on day 1, Nunc black MaxiSorp® 96-well plates (Thermo Fisher Scientific, USA) were coated overnight with 100 μl per well of mouse anti-human TNFα capture antibody (provided as part of the DuoSet ELISA kit) at 4 μg/ml TBS at 4° C. On day 2, the capture antibody solution was removed and MaxiSorp® plates were blocked with 300 μl per well of TBS, 1% BSA at room temperature for 3 hours. Meanwhile, 20,000 THP-1 (American Type Culture Collection, USA) cells in 80 μl of normal growth medium were seeded in each well of Greiner CELLSTAR V-bottom 96-well plates (Thermo Fisher Scientific, USA) and pre-incubated with 20 μl per well of standard growth medium supplemented with Batimastat (BB94, Abcam, UK) at 50 μM as positive control (for a final concentration of 10 μM in the resulting 100 μl sample volume), compounds of the invention at 50 μM (for a final concentration of 10 μM in the resulting 100 μl sample volume) and in case of Buffer stimulated and unstimulated controls with DMSO (Carl Roth, Germany) at 50 μM (for a final concentration of 10 μM in the resulting 100 μl sample volume) at 37° C., 5% CO2 for 30 minutes. Subsequently, cells (except those for unstimulated controls) were stimulated with 20 μl per well of LPS (Sigma-Aldrich, USA) at 300 ng/ml growth medium for a final concentration of 50 ng/ml at 37° C., 5% CO2 for 2 hours. Afterwards, the 96-well plates were centrifuged to pellet cells. In parallel, blocking buffer was removed from the MaxiSorp® plates and plates were washed 4 times with 350 μl per well of TBS-T (Carl Roth, Germany) on a 96-head plate washer (Tecan Group, Switzerland). To avoid drying-up, 30 μl of TBS were added to each well of the MaxiSorp® plates immediately, followed by the transfer of 70 μl of cell-free supernatant per sample. Additionally, 100 μl of recombinant human TNFα protein (provided as part of the DuoSet ELISA kit) diluted in TBS at defined concentrations were added to the plate as standard references. Thereafter, 100 μl per well of biotinylated goat anti-human TNFα detection antibody (provided as part of the DuoSet ELISA kit) at 50 ng/ml TBS were added and, protected from direct light, plates were incubated at room temperature for 2 hours. After 4 times washing with 350 μl per well of TBS-T (Carl Roth, Germany) on a 96-head plate washer (Tecan Group, Switzerland) and careful removal of all buffer traces after the fourth cycle, 100 μl of streptavidin-AP (R&D Systems, USA) diluted 1:10,000 in TBS were added to each well and, again protected from direct light, plates were incubated at room temperature for 30 minutes. Following another round of 4 times washing with 350 μl per well of TBS-T (Carl Roth, Germany) on a 96-head plate washer (Tecan Group, Switzerland) and careful removal of all buffer traces after the fourth cycle, 100 μl of AttoPhos substrate solution (Promega, USA) was added for incubation in the dark at room temperature for 1 hour. Using an infinite M1000 PRO (Tecan Group, Switzerland) microplate reader, the fluorescence of each well was collected at an excitation wavelength of 435 nm and an emission wavelength of 555 nm.
The delta between Buffer stimulated and Buffer unstimulated was defined 100% inhibition.

[1] = 10 μM final concentration, LPS 50 ng/ml, 2 hours, delta Buffer stimulated vs unstimulated = 100% inhibition

## Cc1c(C(=O)NCc2cccs2)sc(=O)n1Cc1ccccc1F [Compound 5]
[1]
  inhibition at 10 µM: 66.1%

## Cc1c(C(=O)NCc2cccs2)sc(=O)n1Cc1ccccc1 [Compound 4]
[1]
  inhibition at 10 µM: 58.2%

## CCOC(=O)c1ccc(Nc2nc3nonc3n3nnnc23)cc1 [Compound 2]
[1]
  inhibition at 10 µM: 94.6%

## Cc1c(C(=O)NCc2ccco2)sc(=O)n1Cc1ccccc1F [Compound 7]
[1]
  inhibition at 10 µM: 85.8%

## CCC(=O)NCCc1c(/C=C2/C(=O)NC(=O)N(c3ccc(C)cc3C)C2=O)[nH]c2ccccc12 [Compound 1]
  inhibition at 10 µM: 100%

## O=C(c1c(Cl)cccc1Cl)N1CCC(Cc2ccc(F)cc2)CC1 [Compound 3]
[1]
  inhibition at 10 µM: 93.1%

## CNC(=O)[C@H](Cc1ccccc1)NC(=O)[C@H](CC(C)C)[C@H](CSc1cccs1)C(=O)NO [Batimastat, reference compound]
[1]
  inhibition of LPS-induced release of TNFα from THP-1 cells: 94.9%
  inhibition at 10 µM: 87.4%
